Reference: US20160009751A1, “C-19 HYDROXY PREGNENES” (LEO Pharma A/S, priority 2014, published 2016)

Tests used:
[1] = molecular target: T1, recombinant glucocorticoid receptor (GR) (Homo sapiens, UniProt P04150); assay: Glucocorticoid receptor (GR) competitive binding assay (PolarScreen, fluorescence polarization); details: competition with Fluormone GS1, 2 hours at room temperature; relative IC50; read-out: GR binding; Rel IC50
T1 sequence (P04150 1-777): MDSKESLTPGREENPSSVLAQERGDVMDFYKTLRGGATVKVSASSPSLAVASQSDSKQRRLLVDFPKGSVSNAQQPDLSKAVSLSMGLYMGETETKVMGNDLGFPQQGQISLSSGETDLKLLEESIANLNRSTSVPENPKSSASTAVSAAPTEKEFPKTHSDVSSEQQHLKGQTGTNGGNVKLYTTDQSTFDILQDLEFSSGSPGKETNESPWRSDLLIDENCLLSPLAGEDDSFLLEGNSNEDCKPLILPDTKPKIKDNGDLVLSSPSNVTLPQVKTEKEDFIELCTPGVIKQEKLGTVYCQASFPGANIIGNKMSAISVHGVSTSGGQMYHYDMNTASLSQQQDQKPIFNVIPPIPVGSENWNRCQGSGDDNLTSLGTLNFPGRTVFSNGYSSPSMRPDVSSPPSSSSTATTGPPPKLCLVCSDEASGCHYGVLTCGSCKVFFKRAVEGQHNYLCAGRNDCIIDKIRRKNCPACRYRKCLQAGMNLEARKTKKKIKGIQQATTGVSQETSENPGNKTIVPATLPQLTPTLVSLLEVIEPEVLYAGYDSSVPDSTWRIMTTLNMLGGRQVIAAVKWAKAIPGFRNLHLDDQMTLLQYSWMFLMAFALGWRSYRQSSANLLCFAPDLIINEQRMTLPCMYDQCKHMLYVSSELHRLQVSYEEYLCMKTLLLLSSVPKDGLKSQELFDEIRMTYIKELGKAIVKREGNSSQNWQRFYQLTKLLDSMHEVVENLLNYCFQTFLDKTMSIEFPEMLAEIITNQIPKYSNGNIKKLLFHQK
Procedure: Glucocorticoid receptor binding was determined by competitive receptor binding assay using the PolarScreen™ Glucocorticoid Receptor Competitor Assay Kit, Green (Life Technologies, catalogue number A15897) in a 384-well format according to the manufacturer's instructions. Briefly, serial dilutions of test and reference compounds were prepared in 384-well plates. Subsequently, the steroidal competitor Fluormone™ GS1 and recombinant glucocorticoid receptor (GR) were added to all wells and the plate was incubated for 2 hours at room temperature and protected from light. Finally, polarization values in each well were determined by reading the plate in an EnVision (PerkinElmer) device.

[2] = molecular target: T2, mineralocorticoid receptor (MR) (Homo sapiens, UniProt P08235); assay: Mineralocorticoid receptor (MR) antagonism assay (GeneBLAzer MR DA, beta-lactamase reporter); assay type: cell-based; details: 0.14 nM-1 uM test compound, 10 nM aldosterone; relative IC50; read-out: Mineral corticoid receptor (MR) antagonism; Rel IC50
T2 construct: UAS-driven beta-lactamase reporter
T2 sequence (P08235 726-984 limits assumed): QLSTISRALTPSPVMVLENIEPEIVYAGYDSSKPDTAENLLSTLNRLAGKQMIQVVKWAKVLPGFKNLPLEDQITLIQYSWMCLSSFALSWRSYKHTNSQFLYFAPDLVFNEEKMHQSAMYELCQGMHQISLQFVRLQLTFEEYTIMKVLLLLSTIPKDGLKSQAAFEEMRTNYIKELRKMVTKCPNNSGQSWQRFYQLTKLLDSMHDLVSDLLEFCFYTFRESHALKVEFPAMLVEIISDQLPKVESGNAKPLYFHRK
Procedure: Agonistic and antagonistic interaction with the mineralocorticoid receptor was determined using the GeneBLAzer® MR DA Assay Kit (Life Technologies, catalogue number K1409) in a 96-well format according to the manufacturer's instructions. For determination of MR agonistic effect, cells were incubated with 0.14 nM-1 uM of test compound; the MR agonist aldosterone was included as a positive control in the same concentration range. After 16 h incubation, assay substrate (LiveBLAzer™-FRET B/G) was added to all wells and cells were incubated for 2 h followed by fluorometric detection (409/447 nm excitation and emission wavelength, respectively) of substrate conversion by beta-lactamase.
After 0.5 h, 10 nM of the MR agonist aldosterone was added to all wells and cells were incubated for another 15.5 h. After that, assay substrate (LiveBLAzer™-FRET B/G) was added to all wells and cells were incubated for 2 h followed by fluorometric detection (409/447 nm excitation and emission wavelength, respectively) substrate conversion by beta lactamase.

[3] = system: Interleukin-12B (IL-12B) release from primary human monocytes (PBMC); assay: Interleukin-12B (IL-12B) release from LPS-stimulated primary human monocytes (PBMC); assay type: cell-based; details: 100 ng/ml LPS for 18 h, ELISA, relative IC50, read-out: Interleukin-12B (IL-12B), Rel IC50
Excerpt: The assay was adopted from a previously reported method (Schäcke et al, Br 3 Pharmacol (2009); 158(4): 1088-103) and is based on PBMC isolated from human blood. Stimulation of these cells with lipopolysaccharide (LPS) induces—among many other processes—the synthesis and secretion of the cytokine IL-12B. Both steroidal (glucocorticoids) and non-steroidal glucocorticoid receptor agonists act anti-inflammatory—e.g. by preventing DNA-binding of inflammatory transcription factors like AP-1 or NFkB—resulting in decreased synthesis/secretion of IL12B.
For compound testing, frozen stocks of PBMC were thawed, seeded in 96-well plates (1.2E5 cells/well) and then incubated in RPMI-1640 culture medium with 100 ng/ml LPS for 18 h with or without test compounds (pre-incubation with reference/test compounds for 1 h before addition of LPS). Then, IL-12B concentration in the cell culture supernatants was detected by hIL-12B-specific ELISA (Quantikine® human IL-12 p40 Immunoassay, R&D Systems Cat #SP400).

Row | IC50 [2] | SMILES | IC50 [1] | IC50 [3]
1 | 137 nM | CCCCC(=O)O[C@]1(C(=O)CO)[C@@H](C)C[C@H]2[C@@H]3CCC4=CC(=O)C=C[C@]4(C)[C@@]3(F)[C@@H](O)C[C@@]21C [Bethamethasone valerate] | 7 nM | < 1 nM
2 | 171 nM | CCC(=O)O[C@]1(C(=O)CCl)[C@@H](C)C[C@H]2[C@@H]3CCC4=CC(=O)C=C[C@]4(C)[C@@]3(F)[C@@H](O)C[C@@]21C [Clobetasol propionate] | 6 nM | < 1 nM
3 | – | CCC(=O)O[C@]1(C(=O)CCl)CC[C@H]2[C@@H]3C[C@@H](F)C4=CC(=O)CC[C@]4(CO)[C@H]3[C@@H](O)C[C@@]21C [Compound 2, (6R,8S,9S,10S,11S,13S,14S,17R)-17-(2-chloroacetyl)-6-fluoro-11-hydroxy-10-(hydroxymethyl)-13-methyl-3-oxo-2,3,6,7,8,9,10,11,12,13,14,15,16,17-tetradecahydro-1H-cyclopenta[a]phenanthren-17-yl propionate] | 40 nM | 31 nM

Row | SMILES | IC50 [2] | IC50 [1] | IC50 [3]
4 | CCC(=O)O[C@]1(C(=O)CCl)CC[C@H]2[C@@H]3CCC4=CC(=O)CC[C@]4(CO)[C@H]3[C@@H](O)C[C@@]21C [Compound 1, (8S,9S,10S,11S,13S,14S,17R)-17-(2-chloroacetyl)-11-hydroxy-10-(hydroxymethyl-13-methyl-3-oxo-2,3,6,7,8,9,10,11,12,13,14,15,16,17-tetradecahydro-1H-cyclopenta[a]phenanthren-17-yl propionate] | > 1000 nM | 25 nM | 36 nM
